Key:
[1] = target: T1, USP7 (Homo sapiens, UniProt Q93009, C315A); assay: Inhibition of USP7 by Fluorescence Intensity (FLINT) readings, Ubiquitin-Rhodamine-110 substrate; type: biochemical; conditions: 0.25 nM His-His-USP7 (aa208-560), 60 minutes at 30° C. preincubation; Ki determined from IC50 according to Cer et al.
T1 construct: 0.25 nM His-His-USP7 (aa208-560, |C315A|) was incubated with compound; His-His (N)
Outline: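 His-tagged USP7 (aa208-560, C315A), 0.25 nM, preincubated with compound 60 min at 30 °C in 100 mM Bicine pH 8.0, 0.01% Triton X-100, 1 mM TCEP, 10% DMSO. Ubiquitin-Rhodamine-110 (50 nM or 4 μM) added; kinetic fluorescence (Ex 485/Em 535 nm) over 21 min; IC50 from 11-point curves, Ki derived from IC50.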

[2] = test system: Z138 mantle cell lymphoma tumour cell lines; assay: In vitro cytotoxicity, MTT assay; type: cell-based; conditions: Homo sapiens, Z-138; Z138 cells, exposed to the test compounds for 96 hours
Outline: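 Z138 cells exposed to compounds for 96 hours, then MTT added for 4 hours. Formazan absorbance at 540 nm serves as the measure of viable cell number.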

T1 sequence (Q93009 208-560 C315A): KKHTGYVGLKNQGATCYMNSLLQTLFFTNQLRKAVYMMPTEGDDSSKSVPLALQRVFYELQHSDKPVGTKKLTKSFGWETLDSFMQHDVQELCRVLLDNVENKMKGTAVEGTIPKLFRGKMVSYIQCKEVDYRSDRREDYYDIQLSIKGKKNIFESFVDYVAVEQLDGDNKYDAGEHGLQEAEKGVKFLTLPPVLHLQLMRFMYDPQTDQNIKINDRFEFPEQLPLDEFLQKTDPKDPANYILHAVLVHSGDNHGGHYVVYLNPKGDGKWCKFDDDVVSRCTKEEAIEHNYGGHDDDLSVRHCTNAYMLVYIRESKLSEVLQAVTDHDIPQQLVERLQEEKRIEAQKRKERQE

| SMILES | Ki [1] | IC50 [2] |
| --- | --- | --- |
| Cn1c(C(=O)N2CC[C@@H](C(=O)N3CCC(O)(Cn4cnc(Oc5ccc(F)cc5)c(N)c4=O)CC3)[C@H](c3ccccc3)C2)cc2ccccc21 [Example 37, 5-amino-6-(4-fluorophenoxy)-3-({4-hydroxy-1-[(3R,4R)-1-(1-methyl-1H-indole-2-carbonyl)-3-phenylpiperidine-4-carbonyl]piperidin-4-yl}methyl)pyrimidin-4(3H)-one] | 13.6 nM | 6.66 nM |
| CCOc1cccc(C(=O)N2CC[C@@H](C(=O)N3CCC(O)(Cn4cnc(Oc5ccc(F)cc5)c(N)c4=O)CC3)[C@H](c3ccccc3)C2)c1 [Example 55, 5-amino-3-({1-[(3R,4R)-1-(3-ethoxybenzoyl)-3-phenylpiperidine-4-carbonyl]-4-hydroxypiperidin-4-yl)methyl)-6-(4-fluorophenoxy)pyrimidin-4(3H)-one] | 15 nM | 12 nM |
| Cc1ccc(-c2nc(C)c(C(=O)N3CC[C@@H](C(=O)N4CC[C@](O)(Cn5cnc(Oc6ccc(CN)cc6)c(N)c5=O)C(F)(F)C4)[C@H](c4ccccc4)C3)s2)cn1 [Example 210] | 0.215 nM | 1.85 nM |
| Nc1c(Oc2ccc(F)cc2)ncn(C[C@@]2(O)CCN(C(=O)[C@@H]3CCN(Cc4ccncn4)C[C@H]3c3ccccc3)CC2(F)F)c1=O [Example 212, 5-amino-3-[[(4S)-3,3-difluoro-4-hydroxy-1-[(3R,4R)-3-phenyl-1-(pyrimidin-4-ylmethyl)piperidine-4-carbonyl]-4-piperidyl]methyl]-6-(4-fluorophenoxy)pyrimidin-4-one] | 34.1 nM | 21.4 nM |
| CN(C(=O)N1CC[C@@H](C(=O)N2CCC(O)(Cn3cnc(Oc4ccc(F)cc4)c(N)c3=O)CC2)[C@H](c2ccccc2)C1)c1ccccc1 [Example 78, (3R,4R)-4-[4-[[5-amino-4-(4-fluorophenoxy)-6-oxo-pyrimidin-1-yl]methyl]-4-hydroxy-piperidine-1-carbonyl]-N-methyl-N,3-diphenyl-piperidine-1-carboxamide] | 58 nM | 15 nM |
| Nc1c(Oc2ccc(F)cc2)ncn(CC2(O)CCN(C(=O)[C@@H]3CCN(Cc4cnccn4)C[C@H]3c3ccccc3)CC2)c1=O [Example 63] | 12.4 nM | 16.3 nM |
| Nc1c(Oc2ccc(F)cc2)ncn(CC2(O)CCN(C(=O)[C@@H]3CCN(C(=O)c4cncc(Br)c4)C[C@H]3c3ccccc3)CC2)c1=O [Example 33, 5-amino-3-({1-[(3R,4R)-1-(5-bromopyridine-3-carbonyl)-3-phenylpiperidine-4-carbonyl]-4-hydroxypiperidin-4-yl}methyl)-6-(4-fluorophenoxy)pyrimidin-4(3)-one] | 7.77 nM | 2.55 nM |
| Cc1ccc(-c2nc(C)c(C(=O)N3CC[C@@H](C(=O)N4CCC(O)(Cn5cnc(Oc6cccnc6)c(N)c5=O)CC4)[C@H](c4ccccc4)C3)s2)cn1 [Example 169] | 3.47 nM | 16.6 nM |
| Cc1ccc(-c2cc(F)cc(C(=O)N3CC[C@@H](C(=O)N4CCC(O)(Cn5cnc(Oc6ccc(F)cc6)c(N)c5=O)CC4)[C@H](c4ccccc4)C3)c2)cn1 [Example 121] | 4.68 nM | 6.4 nM |
| Cc1cnc(CN2CC[C@@H](C(=O)N3CC[C@](O)(Cn4cnc(Oc5ccc(Cl)c(F)c5)c(N)c4=O)C(F)(F)C3)[C@H](c3ccccc3)C2)cn1 [Example 148, 5-amino-6-(4-chloro-3-fluoro-phenoxy)-3-[[(4S)-3,3-difluoro-4-hydroxy-1-[(3R,4R)-1-[(5-methylpyrazin-2-yl)methyl]-3-phenyl-piperidine-4-carbonyl]-4-piperidyl]methyl]pyrimidin-4-one] | 7.5 nM | 39.9 nM |
| COc1cc(Oc2ncn(C[C@@]3(O)CCN(C(=O)[C@@H]4CCN(Cc5ccnc(C)n5)C[C@H]4c4ccccc4)CC3(F)F)c(=O)c2N)ccc1F [Example 149] | 14 nM | 24.1 nM |
| Cc1nccc(CN2CC[C@@H](C(=O)N3CCC(O)(Cn4cnc(Oc5ccc(CO)cc5)c(N)c4=O)CC3)[C@H](c3ccccc3)C2)n1 [Example 200] | 30 nM | 106 nM |
| Nc1c(Oc2cccc(C(F)(F)F)c2)ncn(CC2(O)CCN(C(=O)[C@@H]3CCN(C(=O)c4sc(I)cc4F)C[C@H]3c3ccccc3)CC2)c1=O [Example 99, 5-amino-3-[[1-((3R,4R)-1-(3-fluoro-5-iodo-thiophene-2-carbonyl)-3-phenyl-piperidine-4-carbonyl]-4-hydroxy-4-piperidyl]methyl]-6-[3-(trifluoromethyl)phenoxy]pyrimidin-4-one] | 56 nM | 120 nM |
| Cn1c(C(=O)N2CC[C@@H](C(=O)N3CCC(O)(Cn4cnc(Oc5ccc(F)cc5)c(N)c4=O)CC3)[C@H](c3ccccc3)C2)cnc1Br [Example 95, 5-amino-3-({1-[(3R,4R)-1-(2-bromo-1-methyl-11H-imidazole-5-carbonyl)-3-phenylpiperidine-4-carbonyl]-4-hydroxypiperidin-4-yl}methyl)-6-(4-fluorophenoxy)pyrimidin-4(3H)-one] | 21 nM | 27 nM |
| Nc1c(Oc2ccc(F)cc2)ncn(C[C@@]2(O)CCN(C(=O)[C@@H]3CCN(Cc4cnccn4)C[C@H]3c3ccccc3)CC2(F)F)c1=O [Example 202, 5-amino-3-[[(4S)-3,3-difluoro-4-hydroxy-1-[(3R,4R)-3-phenyl-1-(pyrazin-2-ylmethyl)piperidine-4-carbonyl]-4-piperidyl]methyl]-6-(4-fluorophenoxy)pyrimidin-4-one] | 21.8 nM | 11.7 nM |
| COc1cc(Oc2ncn(C[C@@]3(O)CCN(C(=O)[C@@H]4CCN(Cc5cnc(C)cn5)C[C@H]4c4ccccc4)CC3(F)F)c(=O)c2N)ccc1Cl [Example 183, 5-amino-6-(4-chloro-3-methoxy-phenoxy)-3-[[(4S)-3,3-difluoro-4-hydroxy-1-[(3R,4R)-1-[(5-methylpyrazin-2-yl)methyl]-3-phenyl-piperidine-4-carbonyl]-4-piperidyl]methyl]pyrimidin-4-one] | 37 nM | 9.5 nM |
| COc1cc(Oc2ncn(C[C@@]3(O)CCN(C(=O)[C@@H]4CCN(C(=O)c5sc(-c6ccc(C)nc6)nc5C)C[C@H]4c4ccccc4)CC3(F)F)c(=O)c2N)ccc1Cl [Example 184, 5-amino-6-(4-chloro-3-methoxy-phenoxy)-3-[[(4S)-3,3-difluoro-4-hydroxy-1-[(3R,4R)-1-[4-methyl-2-(6-methyl-3-pyridyl)thiazole-5-carbonyl]-3-phenyl-piperidine-4-carbonyl]-4-piperidyl]methyl]pyrimidin-4-one] | 7.28 nM | 3.96 nM |
| Cc1nc(-c2ccc(N(C)C)nc2)sc1C(=O)N1CC[C@@H](C(=O)N2CCC(O)(Cn3cnc(Oc4cccc(C(F)(F)F)c4)c(N)c3=O)CC2)[C@H](c2ccccc2)C1 [Example 126] | 4.44 nM | 29.5 nM |
| COc1cc(Oc2ncn(C[C@@]3(O)CCN(C(=O)[C@@H]4CCN(Cc5ccnc(C)n5)C[C@H]4c4ccccc4)CC3(F)F)c(=O)c2N)ccc1Cl [Example 182] | 40.4 nM | 9.95 nM |
| Cc1ccc(-c2ccc(S(=O)(=O)N3CC[C@@H](C(=O)N4CCC(O)(Cn5cnc(Oc6ccc(F)cc6)c(N)c5=O)CC4)[C@H](c4ccccc4)C3)s2)cn1 [Example 117] | 28.6 nM | 27.6 nM |
| Cc1ccc(-c2cncc(C(=O)N3CC[C@@H](C(=O)N4CCC(O)(Cn5cnc(Oc6ccc(F)cc6)c(N)c5=O)CC4)[C@H](c4ccccc4)C3)c2)cn1 [Example 34, 5-amino-6-(4-fluorophenoxy)-3-({4-hydroxy-1-[(3R,4R)-1-(6′-methyl[3,3′-bipyridine]-5-carbonyl)-3-phenylpiperidine-4-carbonyl]piperidin-4-yl}methyl)pyrimidin-4(3H)-one] | 3.58 nM | 11 nM |
| CN(C(=O)CN1CC[C@@H](C(=O)N2CCC(O)(Cn3cnc(Oc4ccc(F)cc4)c(N)c3=O)CC2)[C@H](c2ccccc2)C1)c1ccccc1 [Example 74] | 78 nM | 70 nM |
| Cc1ccc(-c2cccc(S(=O)(=O)N3CC[C@@H](C(=O)N4CCC(O)(Cn5cnc(Oc6ccc(F)cc6)c(N)c5=O)CC4)[C@H](c4ccccc4)C3)c2)cn1 [Example 159, 5-amino-6-(4-fluorophenoxy)-3-[[4-hydroxy-1-[(3R,4R)-1-[3-(6-methyl-3-pyridyl)phenyl]sulfonyl-3-phenyl-piperidine-4-carbonyl]-4-piperidyl]methyl]pyrimidin-4-one] | 22.2 nM | 8.18 nM |
| Cc1nc(N2CCOCC2)sc1C(=O)N1CC[C@@H](C(=O)N2CCC(O)(Cn3cnc(Oc4ccc(F)cc4)c(N)c3=O)CC2)[C@H](c2ccccc2)C1 [Example 64, 5-amino-6-(4-fluorophenoxy)-3-[(4-hydroxy-1-{(3R,4R)-1-[4-methyl-2-(morpholin-4-yl)-1,3-thiazole-5-carbonyl]-3-phenylpiperidine-4-carbonyl)piperidin-4-yl)methyl]pyrimidin-4(3H)-one] | 6.4 nM | 8.39 nM |
| Cc1nc(C2CC(F)(F)C2)sc1C(=O)N1CC[C@@H](C(=O)N2CC[C@](O)(Cn3cnc(Oc4ccc(F)cc4)c(N)c3=O)C(F)(F)C2)[C@H](c2ccccc2)C1 [Example 190] | 12.4 nM | 6.82 nM |
| Nc1c(Oc2ccc(F)cc2)ncn(CC2(O)CCN(C(=O)[C@@H]3CCN(C(=O)C4(c5ccccc5)CC4)C[C@H]3c3ccccc3)CC2)c1=O [Example 132] | 35.4 nM | 47.8 nM |
